In PubChem BioAssay (NCI):
“And” between values parts separate entries of the source, which are not always exact repeats. Identical values can stand only once.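 Cultured in 96-well plates, cells were exposed to test compound for 48 hours across five concentrations. At the GI50, growth is halved. The concentration for full growth arrest is given as TGI.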

What was measured:
Assay in all cases: DTP human tumour cell line panel, 48 h; in the data active = GI50 below about 0.43 µM; inactive = the rest
SF-295 CNS = system: SF-295 CNS
786-0 renal = system: 786-0 renal
OVCAR-4 ovarian = system: OVCAR-4 ovarian
HCT-15 colon = system: HCT-15 colon
A549 NSCLC = system: A549 NSCLC
ACHN renal = system: ACHN renal
MDA-MB-231 breast = system: MDA-MB-231 breast
SK-MEL-28 melanoma = system: SK-MEL-28 melanoma
CCRF-CEM leukemia = system: CCRF-CEM leukemia
UO-31 renal = system: UO-31 renal
EKVX NSCLC = system: EKVX NSCLC
SK-MEL-5 melanoma = system: SK-MEL-5 melanoma
SN12C renal = system: SN12C renal
SK-MEL-2 melanoma = system: SK-MEL-2 melanoma
RXF 393 renal = system: RXF 393 renal
MDA-N = system: MDA-N
SR leukemia = system: SR leukemia
RPMI-8226 leukemia = system: RPMI-8226 leukemia

CC(=O)Oc1cc2c(n(C)c1=O)CCC2
> 100 µM: TGI (SF-295 CNS) | TGI (786-0 renal) | TGI (OVCAR-4 ovarian) | TGI (HCT-15 colon) | TGI (A549 NSCLC) | TGI (ACHN renal) | TGI (MDA-MB-231 breast) | TGI (SK-MEL-28 melanoma) | TGI (CCRF-CEM leukemia) | TGI (UO-31 renal) | TGI (EKVX NSCLC) | TGI (SK-MEL-5 melanoma) | TGI (SN12C renal) | TGI (SK-MEL-2 melanoma)

CC(=O)Oc1ccc2c3c1[C@@H]1O[C@@H]1c1cccc(c1-3)[C@@H]1O[C@H]21
2.91 µM: TGI (UO-31 renal)
> 100 µM: TGI (SK-MEL-2 melanoma)
3.56 µM: TGI (SK-MEL-5 melanoma)
2.73 µM: TGI (RXF 393 renal)
3.83 µM: TGI (SF-295 CNS)
3.32 µM: TGI (MDA-N)
3.74 µM: TGI (ACHN renal)
3.94 µM: TGI (CCRF-CEM leukemia)
inactive: GI50 (OVCAR-4 ovarian) 2.39 µM | GI50 (SK-MEL-2 melanoma) 3.12 µM
3.64 µM: TGI (MDA-MB-231 breast)
3.14 µM: TGI (786-0 renal)
5.48 µM: TGI (OVCAR-4 ovarian)

CC(C)(C)c1cc2c(O)c(c1)COCc1cc(C(C)(C)C)cc(c1O)COCc1cc(C(C)(C)C)cc(c1O)COC2
> 100 µM: TGI (SF-295 CNS) | TGI (786-0 renal) | TGI (OVCAR-4 ovarian) | TGI (HCT-15 colon) | TGI (A549 NSCLC) | TGI (ACHN renal) | TGI (RXF 393 renal) | TGI (SK-MEL-28 melanoma) | TGI (SR leukemia) | TGI (CCRF-CEM leukemia) | TGI (UO-31 renal) | TGI (RPMI-8226 leukemia) | TGI (EKVX NSCLC) | TGI (SK-MEL-5 melanoma) | TGI (SK-MEL-2 melanoma)

Cc1ccc(C(=O)C(C)N)cc1C (configuration not stated)
> 100 µM: TGI (SF-295 CNS) | TGI (786-0 renal) | TGI (OVCAR-4 ovarian) | TGI (A549 NSCLC) | TGI (ACHN renal) | TGI (RXF 393 renal) | TGI (SK-MEL-28 melanoma) | TGI (CCRF-CEM leukemia) | TGI (UO-31 renal) | TGI (RPMI-8226 leukemia) | TGI (EKVX NSCLC) | TGI (SK-MEL-5 melanoma) | TGI (SN12C renal) | TGI (SK-MEL-2 melanoma)

CCOC(=O)C(C(=O)OCC)C(NC(=O)Nc1cc(C(F)(F)F)ccc1OC)(C(F)(F)F)C(F)(F)F
55.8 µM: TGI (786-0 renal)
39.7 µM: TGI (MDA-MB-231 breast)
56.8 µM: TGI (RPMI-8226 leukemia)
39.5 µM: TGI (UO-31 renal)
84.8 µM: TGI (SF-295 CNS)
> 100 µM: TGI (HCT-15 colon) | TGI (A549 NSCLC) | TGI (ACHN renal) | TGI (SK-MEL-28 melanoma) | TGI (MDA-N) | TGI (EKVX NSCLC)
39.6 µM: TGI (SK-MEL-5 melanoma)
62.3 µM: TGI (RXF 393 renal)
74.2 µM: TGI (SN12C renal)
70.9 µM: TGI (CCRF-CEM leukemia)
98.6 µM: TGI (OVCAR-4 ovarian)

COC1=CC(=O)C2C(C1=O)[C@@H]1c3ccccc3OC[C@H]21 (some centres not stated)
> 100 µM: TGI (SF-295 CNS) | TGI (786-0 renal) | TGI (OVCAR-4 ovarian) | TGI (A549 NSCLC) | TGI (ACHN renal) | TGI (RXF 393 renal) | TGI (SK-MEL-28 melanoma) | TGI (CCRF-CEM leukemia) | TGI (UO-31 renal) | TGI (RPMI-8226 leukemia) | TGI (EKVX NSCLC) | TGI (SK-MEL-5 melanoma) | TGI (SK-MEL-2 melanoma)

Fc1ccc(C(OCCN2CCC3CCC(C2)N3C/C=C/c2cccnc2)c2ccc(F)cc2)cc1 (configuration not stated)
25 µM: TGI (EKVX NSCLC)
21.6 µM: TGI (HCT-15 colon)
22.2 µM: TGI (SF-295 CNS)
5.38 µM: TGI (SK-MEL-28 melanoma)
14.9 µM: TGI (SK-MEL-5 melanoma)
17.5 µM: TGI (CCRF-CEM leukemia)
26.6 µM: TGI (MDA-MB-231 breast)
27.3 µM: TGI (ACHN renal)
26.2 µM: TGI (SN12C renal)
25.4 µM: TGI (A549 NSCLC)
23.8 µM: TGI (MDA-N)
6.09 µM: TGI (UO-31 renal)
30.2 µM: TGI (OVCAR-4 ovarian)
26.5 µM: TGI (SK-MEL-2 melanoma)
17.8 µM: TGI (786-0 renal)
5.8 µM: TGI (RPMI-8226 leukemia)
19.4 µM: TGI (RXF 393 renal)

C#CC1(O)CC(c2ccccc2)N(C)C(c2ccccc2)C1 (configuration not stated)
> 100 µM: TGI (SF-295 CNS) | TGI (786-0 renal) | TGI (OVCAR-4 ovarian) | TGI (HCT-15 colon) | TGI (A549 NSCLC) | TGI (ACHN renal) | TGI (RXF 393 renal) | TGI (SK-MEL-28 melanoma) | TGI (CCRF-CEM leukemia) | TGI (UO-31 renal) | TGI (EKVX NSCLC) | TGI (SK-MEL-5 melanoma) | TGI (SN12C renal) | TGI (SK-MEL-2 melanoma)

COC(=O)/C=C/N1CC1
> 10 µM: TGI (SF-295 CNS) | TGI (786-0 renal) | TGI (OVCAR-4 ovarian) | TGI (HCT-15 colon) | TGI (A549 NSCLC) | TGI (ACHN renal) | TGI (MDA-MB-231 breast) | TGI (SK-MEL-28 melanoma) | TGI (SR leukemia) | TGI (CCRF-CEM leukemia) | TGI (RPMI-8226 leukemia) | TGI (EKVX NSCLC) | TGI (SK-MEL-5 melanoma) | TGI (SN12C renal) | TGI (SK-MEL-2 melanoma)

COc1ccc(/C=C2\CC3C4CC=C5C[C@@H](O)CC[C@]5(C)C4CC[C@]3(C)C2=O)cc1OC (some centres not stated)
21.9 µM: TGI (SK-MEL-5 melanoma)
90.3 µM: TGI (UO-31 renal)
> 100 µM: TGI (786-0 renal) | TGI (OVCAR-4 ovarian) | TGI (HCT-15 colon) | TGI (A549 NSCLC) | TGI (ACHN renal) | TGI (MDA-MB-231 breast) | TGI (RXF 393 renal) | TGI (SK-MEL-28 melanoma) | TGI (CCRF-CEM leukemia) | TGI (MDA-N) | TGI (EKVX NSCLC) | TGI (SN12C renal) | TGI (SK-MEL-2 melanoma)
50.4 µM: TGI (SF-295 CNS)
36.2 µM: TGI (RPMI-8226 leukemia)

OCC(O)C(O)C(C=NNc1ncnc2ccc(Br)cc12)=NNc1ncnc2ccc(Br)cc12 (configuration not stated)
12.1 µM and > 100 µM: TGI (SK-MEL-2 melanoma)
20.9 µM and > 100 µM: TGI (EKVX NSCLC)
2.68 µM and 4.28 µM: TGI (SK-MEL-5 melanoma)
> 100 µM: TGI (SF-295 CNS) | TGI (786-0 renal) | TGI (SK-MEL-28 melanoma) | TGI (MDA-N) | TGI (RPMI-8226 leukemia) | TGI (SN12C renal)
72.4 µM: TGI (RXF 393 renal)
25.6 µM and > 100 µM: TGI (UO-31 renal)
60.7 µM and > 100 µM: TGI (A549 NSCLC)
31.3 µM and > 100 µM: TGI (MDA-MB-231 breast)
23.7 µM and > 100 µM: TGI (OVCAR-4 ovarian)
14.2 µM and > 100 µM: TGI (ACHN renal)

CC(C)(C)OC(=O)CC(NC(=O)OC(C)(C)C)C(=O)Oc1ccc([N+](=O)[O-])cc1 (configuration not stated)
> 100 µM: TGI (SF-295 CNS) | TGI (786-0 renal) | TGI (OVCAR-4 ovarian) | TGI (HCT-15 colon) | TGI (A549 NSCLC) | TGI (ACHN renal) | TGI (MDA-MB-231 breast) | TGI (RXF 393 renal) | TGI (SK-MEL-28 melanoma) | TGI (CCRF-CEM leukemia) | TGI (MDA-N) | TGI (UO-31 renal) | TGI (RPMI-8226 leukemia) | TGI (EKVX NSCLC) | TGI (SK-MEL-5 melanoma) | TGI (SN12C renal) | TGI (SK-MEL-2 melanoma)

Cc1nc2c(s/c(=N\N)n2-c2ccccc2)c(=O)n1C
> 100 µM: TGI (SF-295 CNS) | TGI (786-0 renal) | TGI (OVCAR-4 ovarian) | TGI (HCT-15 colon) | TGI (A549 NSCLC) | TGI (ACHN renal) | TGI (RXF 393 renal) | TGI (SK-MEL-28 melanoma) | TGI (SR leukemia) | TGI (CCRF-CEM leukemia) | TGI (UO-31 renal) | TGI (RPMI-8226 leukemia) | TGI (EKVX NSCLC) | TGI (SK-MEL-5 melanoma) | TGI (SN12C renal) | TGI (SK-MEL-2 melanoma)

O=C(CSCC(=O)N/N=C/c1ccncc1)N/N=C/c1ccncc1
> 100 µM: TGI (SF-295 CNS) | TGI (786-0 renal) | TGI (OVCAR-4 ovarian) | TGI (HCT-15 colon) | TGI (A549 NSCLC) | TGI (ACHN renal) | TGI (MDA-MB-231 breast) | TGI (RXF 393 renal) | TGI (SK-MEL-28 melanoma) | TGI (CCRF-CEM leukemia) | TGI (UO-31 renal) | TGI (RPMI-8226 leukemia) | TGI (EKVX NSCLC) | TGI (SK-MEL-5 melanoma) | TGI (SN12C renal) | TGI (SK-MEL-2 melanoma)

COc1cc(OC)cc(Oc2nc3c(N)cc(C(F)(F)F)cc3nc2-c2ccccc2)c1
77.7 µM: TGI (RPMI-8226 leukemia)
98.7 µM: TGI (MDA-MB-231 breast)
55.5 µM: TGI (SK-MEL-2 melanoma)
75.7 µM: TGI (SR leukemia)
> 100 µM: TGI (SF-295 CNS) | TGI (786-0 renal) | TGI (OVCAR-4 ovarian) | TGI (ACHN renal) | TGI (RXF 393 renal) | TGI (SK-MEL-28 melanoma) | TGI (CCRF-CEM leukemia) | TGI (UO-31 renal) | TGI (EKVX NSCLC) | TGI (SK-MEL-5 melanoma)
55.9 µM: TGI (HCT-15 colon)
